Columns and labels:
phosphorylated HS1 = test: Phosphorylated HS1 in cynomolgus macaque CD8+ T cells from whole blood in vitro (flow cytometry); assay type: cell-based; conditions: Macaca fascicularis, T-cell, whole blood from six cynomolgus macaques, 2 hrs 37° C., 2 μg/mL anti-CD3 & anti-CD28 + crosslinker 60 minutes, read-out: Average mean EC50±standard deviation, phosphorylated HS1
Protocol: To assess these candidate clinical proximal biomarkers of Cbl-b inhibition on T cells, pharmacodynamic analysis was performed. Whole blood was obtained from cynomolgus macaque donors, then incubated with increasing concentrations of Compound 23. The response to Cbl-b inhibition on phosphorylated HS1, ZAP70 and PLCγ2 was measured in CD8^+ T cells using flow cytometry. This technique is highly quantitative and can measure multiple phosphorylation markers in different cell populations within the same sample.
DMSO (Dimethyl sulfoxide) was used to reconstitute Compound 23. Final concentration of DMSO was 0.05% in media for in vitro assays. […]
Stained cells were run on an Attune NxT Acoustic Focusing Flow Cytometer (Thermo Fisher, cat. No. A29004), and data was analyzed using FlowJo (v10.6.1) and GraphPad Prism (v8.00) software. Single lymphocytes were gated for CD8^+ cells (CD45^+/CD8^+) cells, and population frequencies were calculated for each population. The data is quantified by the percent positive. […] As protein becomes phosphorylated the fluorescence increases resulting in a larger fraction of the cells entering that gate. Each population was evaluated for % positive pY759-PLCγ2, pY397-HS1 levels, pY319/Syk (Y352)-ZAP70 levels.

phosphorylated PLCγ2 = test: Phosphorylated PLCγ2 in circulating CD8+ T cells of patients, Phase 1 trial (flow cytometry); assay type: in vivo, human
Protocol: [The procedure below names another target; the source lists this target under the same test.] Pharmacodynamic analysis of the proximal biomarker, phosphorylated HS1 is assessed in circulating CD8^+ T cells from patients that are being administered doses ranging from 5 to 50 mg of Compound 23 once daily and is being used to assess target engagement of Compound 23 as part of the dose/exposure-response profile. Whole blood is collected longitudinally and added into two types of TruCulture (Myriad) tubes. One tube contains media, and the second tube contains anti-CD3 and anti-CD28, which are subsequently crosslinked to induce cellular stimulation for pharmacodynamic analysis. Phosphorylated HS1 is assessed by flow cytometry pre and post dose on Cycle 1 Day 1 (C1D1) and Cycle 2 Day 1 (C2D1) to characterize single/multiple dose PD profiles.
% Maximal phosphorylated signal and % AUC are two commonly used parameters to assess the pharmacodynamic effects of drugs.
% Maximal phosphorylated signal refers to the maximum amount of a specific protein that becomes phosphorylated (i.e., modified by the addition of a phosphate group) in response to a drug or other stimulus. This parameter is often used to measure the activation of signaling pathways that are important for various cellular processes, including cell growth and differentiation, immune response, and metabolism.
% AUC, on the other hand, refers to the area under the curve (AUC) over time, expressed as a percentage of the maximum possible AUC. In summary, both % maximal phosphorylated signal and % AUC are useful parameters to assess the pharmacodynamic effects of drugs. % maximal phosphorylated signal is a measure of the activation of signaling pathways, while % AUC reflects the duration of the effect on PD signals. Both parameters can be used to evaluate the potency and duration of a drug's pharmacodynamic effects.

[1] = 5 mg once daily, n=1, cycle 1, day 1
[2] = 15 mg once daily, n=12, cycle 1, day 1
[3] = 25 mg once daily, n=7, cycle 1, day 1
[4] = 50 mg once daily, n=2, cycle 1, day 1

Question: `C[C@H]1CCCN(Cc2cc3c(c(C(F)(F)F)c2)CN(c2cccc([C@]4(c5nncn5C)C[C@@H](C)C4)c2)C3=O)C1` [Compound 23] was tested. Which EC50 (phosphorylated HS1) did it give?
Answer: 230 ± 150 nM

Question: What about the “trend of maximal or AUC % pPLCγ2 with PK” value (phosphorylated PLCγ2) of the same molecule?
Answer: No apparent trend

Question: What about the “% of phosphorylated PLCγ2 expressing CD8+ T cells (maximal)” value (phosphorylated PLCγ2; [1]) of the same molecule?
Answer: 56%

Question: What about the “phosphorylated PLCγ2 AUC” value (phosphorylated PLCγ2; [1]) of the same molecule?
Answer: 1003

Question: And the “% of phosphorylated PLCγ2 expressing CD8+ T cells (maximal)” value (phosphorylated PLCγ2; [2])?
Answer: 81%

Question: What about the “phosphorylated PLCγ2 AUC” value (phosphorylated PLCγ2; [2]) of the same molecule?
Answer: 1616

Question: And the “% of phosphorylated PLCγ2 expressing CD8+ T cells (maximal)” value (phosphorylated PLCγ2; [3])?
Answer: 85%

Question: What about the “phosphorylated PLCγ2 AUC” value (phosphorylated PLCγ2; [3]) of the same molecule?
Answer: 1807

Question: And the “% of phosphorylated PLCγ2 expressing CD8+ T cells (maximal)” value (phosphorylated PLCγ2; [4])?
Answer: 75%

Question: What about the “phosphorylated PLCγ2 AUC” value (phosphorylated PLCγ2; [4]) of the same molecule?
Answer: 1706

— patent US20230355599A1, “BIOMARKERS FOR CBL, AND COMPOSITIONS AND METHODS FOR THEIR USE” (NURIX THERAPEUTICS, INC., priority 2022, published 2023)
